In article PMC11456916, “A screen for cell envelope stress uncovers an inhibitor of prolipoprotein diacylglyceryl transferase, Lgt, in Escherichiacoli” (iScience, 2024):
Values after ≈ are worked out from the molar mass of the structure shown. Where two headings read alike, the source gives them in different places.

Tests used:
[1] = test system: A. baumannii ATCC17978; test: MIC assay with or without SPR741, A. baumannii; format: cell-based, Acinetobacter baumannii; conditions: for MIC: Acinetobacter baumannii
Method: We next sought to determine whether we could achieve growth inhibition of wild-type E. coli using MAC-0452936 and an antibiotic adjuvant. […] To that end, we determined the MIC of MAC-0452936 against wild-type E. coli in the presence and absence of a sub-MIC concentration of SPR741 (Figure S8B). […] We leveraged this combination to characterize the spectrum of activity of MAC-0452936 against a panel of Gram-negative pathogens (Table 2). In the presence of 8 μg/mL SPR741, we observed MAC-0452936 activity against the clinical E. coli isolates C0244 and CFT073 at 2 μg/mL as well as against Salmonella Typhimurium SL1344 at 4 μg/mL.
(§1) For MIC assays, cultures of bacteria were grown in LB broth. Overnight cultures were diluted (1:100) into fresh LB media and grown to the mid-log phase of growth (OD600 ∼0.5). Subcultures were then normalized to an OD600 of 0.1, and diluted (1:5000) into assay media. Assay plates were then incubated for 18 h at 37°C, then OD600 was measured using a Biotek Neo plate reader.

[2] = test system: E. coli ΔtolC-pore Δlpp; test: MIC in lpp deletion background; format: cell-based; conditions: E. coli ΔtolC-pore Δlpp versus E. coli ΔtolC-pore
Excerpt: We next turned to genetic approaches to confirm the mechanism of action of MAC-0452936. […] To that end, we screened the E. coli CRISPRi collection in the ΔtolC-pore genetic background with a sub-inhibitory concentration of MAC-0452936 and measured the fitness of all 356 CRISPRi mutants (Figure 4C and Data S4). […] Depletion of Lgt by CRISPRi provided supporting evidence that MAC-0452936 targeted Lgt in E. coli; however, we sought to confirm this observation using a parallel genetic approach. We hypothesized that MAC-0452936 potency would also be affected by high-copy expression of lgt. To that end, we introduced either an arabinose inducible copy of lgt supplied on the pCHAP9231 plasmid[48] or the pBAD19s plasmid as a control into E. coli ΔtolC-pore and tested the potency of MAC-0452936 (Figure 4E). Induction of lgt expression with arabinose suppressed the activity of MAC-0452936 by about 8-fold. […] To test this hypothesis, we constructed E. coli ΔlgtΔtolC-pore with pCHAP9231[48] so that lgt expression was driven solely by arabinose from the plasmid. […] To test this observation with MAC-0452936, we introduced an lpp deletion into our screening strain E. coli ΔtolC-pore and assessed the activity of our Lgt inhibitor in this mutant background. […]

[3] = test system: HEK293t cells; test: In vitro cytotoxicity (PrestoBlue cell viability); format: cell-based, human; conditions: 24 h
Method: To determine the haemolytic activity and cytotoxicity of MAC-0452936, pooled human blood and HEK293t cells were used, respectively. Fresh pooled human blood for haemolytic assay was acquired from […] Technologies, whilst, HEK293t cells were originally acquired from ATCC (Cat# CRL-3216) and were regularly grown in […] (DMEM) with 10% fetal bovine serum (FBS), L-glutamine and incubated at 37°C. Cell lines are regularly tested for mycoplasma contamination.
The cytotoxicity of MAC-0452936 on HEK293t cells was determined by performing a cell viability assay using PrestoBlue Cell Viability Reagent (Invitrogen). 3 × 10^4 cells/mL were seeded in tissue culture-treated 96-well plates (Nunc; white opaque with clear bottom) in […] (DMEM) with 10% fetal bovine serum (FBS), L-glutamine and incubated at 37°C for 24 h in 5% CO2. The cells were then treated with varying concentrations of MAC-0452936 and similar percentage of DMSO as in drug (solvent control) for 24 h at 37°C. PrestoBlue reagent (20 μL) was added to the wells and incubated for 1 h in the CO2 incubator before reading the plates at excitation/emission wavelength of 560/590 nm on the Biotek Synergy Neo2 plate reader. Fluorescence values were expressed as percentage and inhibition with respect to solvent control was calculated.

[4] = test system: E. coli ΔtolC-pore; test: MIC assay, E. coli ΔtolC-pore; format: cell-based
Method: as §1

Q: For `COc1ccc(C(=O)O/N=C(\c2cccs2)C(C)(C)C)cc1` [MAC-0452936, (Z)-2-Pivaloylthiophene O-(4-methoxybenzoyl) oxime], which “MIC, A. baumannii ATCC17978 + 8 μg/mL SPR741” value ([1]; 8 μg/mL SPR741) is on record?
A: The value was “did not observe MAC-0452936 activity”.

Q: What about the MIC ([1]; ATCC17978, read-out: MIC, A. baumannii ATCC17978 + 8 μg/mL SPR741) of the same molecule?
A: Its MIC is over 64 µg/mL.

Q: And the MIC ([1]; ATCC17978, read-out: MIC, A. baumannii ATCC17978 + 0 μg/mL SPR741)?
A: The MIC was over 64 µg/mL.

Q: What about the “sensitization by deletion of lpp” value [2] of the same molecule?
A: Its value is 2 fold.

Q: What about the “concentrations giving a modest decrease in the viability of HEK-293 cells” value [3] of the same molecule?
A: The value was “greater than 8 μg/mL”.

Q: And the “cytotoxicity to HEK-293 cells” value ([3]; at MIC concentrations)?
A: The value was “did not observe”.

Q: And the “MIC, E. coli ΔtolC-pore” value ([4]; LB, 18 h)?
A: The value was 0.5 µg/mL (≈ 1.58 µM).

Q: And the “activity against E. coli ΔtolC-pore” value ([4]; growth inhibition, in words)?
A: Its value is “active”.
